Measurements published in US12551527B2, “Drug delivery systems for treatment of infections” (Wayne State University, priority 2017, dated 2026).
Like-named read-outs stand apart in the source and are kept apart here.

Assays:
[1] = cited from earlier work
ATCC 29213 (MSSA strain) = assay: MIC by broth microdilution susceptibility testing; assay type: cell-based; conditions: Staphylococcus aureus
Procedure: (§1) Susceptibility Testing. […] The strains tested were SA 494 and ATCC 29213.
(§2) Susceptibility testing. […] The treatment groups were compared to their commercial drug counterparts, both individually and in combination. […] SA 494 is the MRSA strain, and ATCC 29213 is the MSSA strain. The results were obtained as follows:
(§3) To test the effect of the presence of one drug that may enhance the MIC of the other in combination, combination MIC studies were performed. […] The results for MIC of liposomal CFZ in 0.5×the MIC of liposomal VAN were as follows:
(§4) However, liposomal VAN+CFZ [L (VAN+CFZ)] performed much better as compared to commercial VAN+CFZ (a mixture of non-liposomal antibiotics) in MRSA 494/MSSA 29213. The L(VAN+CFZ) has more than >2-4 fold improvement of MIC as compared to VAN+CFZ. Lower the MIC, the better is the MRSA killing.

SA 494 (MRSA strain) = assay: MIC by broth microdilution susceptibility testing; assay type: cell-based; conditions: Staphylococcus aureus
Procedure: as §1, §2, §3, §4

ATCC 29213 = assay: Time-kill analysis in 24 well plates (CLSI); assay type: cell-based, Staphylococcus aureus; conditions: tested at 1/2×MIC, 1×MIC, 24 h, FIG. 13B
Procedure: Time kill analysis was performed in 24 well plates according to CLSI guidelines (Patel 2017. M100: Performance Standards for Antimicrobial Susceptibility Testing, 27th Edition .224). Bactericidal activity was defined as >3 log CFU/ml reduction from baseline (initial inoculum). […] Lower the MIC, the better is the MRSA killing.

MRSA 494 biofilm = assay: Biofilm disruption, pin lid method (Calgary biofilm device); assay type: cell-based, Staphylococcus aureus; conditions: FIG. 14, FIG. 15
Procedure: The Minimum Inhibitory […] (MIC) in presence of biofilm was determined using the pin lid method or Calgary biofilm device (Barber et al., Antimicrob Agents Chemother. 58(5):2989-92, 2014; De Oliveira et al., Int J Mol Sci. 17(9), 2016). This method is used for defining the biofilm MIC vs. antibiotic or combination of antibiotics.

Row | MIC (ATCC 29213 (MSSA strain); MSSA 29213, Example 4 table, read-out: MIC values) | MIC (ATCC 29213 (MSSA strain); strain 29213 (MSSA), broth microdilution, 24 h at 35° C., Example 1, read-out: MC Values (MIC)) | MIC (SA 494 (MRSA strain); MRSA 494, Example 4 table, read-out: MIC values) | MIC (SA 494 (MRSA strain); strain 494 (MRSA), broth microdilution, 24 h at 35° C., Example 1, read-out: MC Values (MIC)) | SMILES | log P [1] | time-kill result (ATCC 29213) | biofilm disruption (in words) (MRSA 494 biofilm) | MIC (ATCC 29213 (MSSA strain); 24 h, read-out: MC Values (MIC)) | MIC (ATCC 29213 (MSSA strain); read-out: MIC values) | MIC (SA 494 (MRSA strain); MRSA, 24 h, read-out: MC Values (MIC)) | MIC (SA 494 (MRSA strain); MRSA, read-out: MIC values)
1 | 0.5 µg/mL | 0.5 µg/mL | > 64 µg/mL | > 16 µg/mL | Cc1nnc(SCC2=C(C(=O)O)N3C(=O)[C@@H](NC(=O)Cn4cnnn4)[C@H]3SC2)s1 [CCFZ, cefazolin] | −0.58 |  |  |  |  |  | 
2 |  |  |  |  | CN[C@H](CC(C)C)C(=O)N[C@H]1C(=O)N[C@@H](CC(N)=O)C(=O)N[C@H]2C(=O)N[C@H]3C(=O)N[C@H](C(=O)N[C@H](C(=O)O)c4cc(O)cc(O)c4-c4cc3ccc4O)[C@H](O)c3ccc(c(Cl)c3)Oc3cc2cc(c3O[C@@H]2O[C@H](CO)[C@@H](O)[C@H](O)[C@H]2O[C@H]2C[C@](C)(N)[C@H](O)[C@H](C)O2)Oc2ccc(cc2Cl)[C@H]1O [CVAN, vancomycin] |  | grow above the initial inoculum at 24 h | barely showed any anti-biofilm effect | 0.5 µg/mL | 0.5 µg/mL | 1 µg/mL | 1 µg/mL
